One assay concerns the target T1, placental αvβ3 (Homo sapiens, UniProt P05106+P06756).
T1 construct: placental αvβ3 at 0.5 ug/mL; from tissue; host or cells: placenta
As to the kind of experiment: Fibrinogen binding to immobilized αvβ3. As to the method:
(§1) The wells of plastic microtiter plates were coated overnight at 4° C. with purified active αIIbβ3 (Calbiochem) or placental αvβ3 at 0.5 ug/mL (100 uL/well) in a buffer containing 150 mM NaCl, 20 mM Tris, pH 7.4, 1 mM MgCl2, 0.2 mM MnCl2, and including 1 mM CaCl2 for αIIbβ3. Blocking of nonspecific sites was achieved by incubating the wells with 35 mg/mL bovine serum albumin (BSA) for at least 2 hours at 37° C. Biotinylated-fibrinogen (10 nM) was added in 0.2 mL binding buffer (100 mM NaCl, 50 mM Tris, pH 7.4, 1 mM MgCl2, 0.2 mM MnCl2 and 1 mg/mL BSA including 1 mM CaCl2 for αIIbβ3) to the wells in triplicate in the absence or presence of increasing concentrations of compounds of interest (0.001-100 uM) and further incubated for 2 hours at 37° C. Nonbound fibrinogen was removed by five washes with binding buffer. Avidin conjugated to alkaline phosphatase (Sigma), diluted in binding buffer, was added and incubated for two hours at 37° C. The plates were washed five times with binding buffer, and after addition of the substrate PNPP (Pierce), the enzyme activity was measured by the absorbance at 405 nm.

The target in another assay is T2, GP IIb-IIIa (αIIbβ3) (Homo sapiens, UniProt P05106+P08514).
T2 construct: purchased Calbiochem
T2 sequence (P08514 32-887 limits assumed): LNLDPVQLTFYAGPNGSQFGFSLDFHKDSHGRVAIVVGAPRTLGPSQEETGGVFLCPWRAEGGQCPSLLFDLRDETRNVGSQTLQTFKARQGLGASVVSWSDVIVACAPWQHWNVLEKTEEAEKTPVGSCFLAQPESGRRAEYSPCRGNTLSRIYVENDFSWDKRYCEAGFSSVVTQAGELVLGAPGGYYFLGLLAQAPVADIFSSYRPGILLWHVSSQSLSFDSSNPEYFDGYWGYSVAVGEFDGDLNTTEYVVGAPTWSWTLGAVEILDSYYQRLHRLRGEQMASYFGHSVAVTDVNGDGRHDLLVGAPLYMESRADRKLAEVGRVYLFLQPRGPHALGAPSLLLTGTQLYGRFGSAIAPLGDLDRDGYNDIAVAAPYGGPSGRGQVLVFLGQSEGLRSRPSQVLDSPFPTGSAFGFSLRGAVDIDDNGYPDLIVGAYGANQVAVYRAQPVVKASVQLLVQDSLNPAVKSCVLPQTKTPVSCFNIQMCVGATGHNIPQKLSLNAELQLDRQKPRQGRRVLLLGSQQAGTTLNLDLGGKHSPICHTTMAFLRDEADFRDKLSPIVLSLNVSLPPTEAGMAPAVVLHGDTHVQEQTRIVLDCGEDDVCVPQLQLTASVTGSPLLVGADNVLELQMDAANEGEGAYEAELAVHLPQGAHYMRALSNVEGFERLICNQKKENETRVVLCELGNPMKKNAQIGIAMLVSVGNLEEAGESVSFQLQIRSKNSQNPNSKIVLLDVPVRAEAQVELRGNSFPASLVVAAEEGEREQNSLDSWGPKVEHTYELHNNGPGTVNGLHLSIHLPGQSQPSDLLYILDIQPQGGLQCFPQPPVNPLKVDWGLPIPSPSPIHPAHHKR
T2 sequence (P08514 891-1039 partner limits assumed): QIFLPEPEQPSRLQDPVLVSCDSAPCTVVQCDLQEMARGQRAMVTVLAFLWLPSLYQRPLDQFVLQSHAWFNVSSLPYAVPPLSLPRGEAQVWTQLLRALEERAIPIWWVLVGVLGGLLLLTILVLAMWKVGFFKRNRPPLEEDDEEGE
T2 sequence (P05106 27-788): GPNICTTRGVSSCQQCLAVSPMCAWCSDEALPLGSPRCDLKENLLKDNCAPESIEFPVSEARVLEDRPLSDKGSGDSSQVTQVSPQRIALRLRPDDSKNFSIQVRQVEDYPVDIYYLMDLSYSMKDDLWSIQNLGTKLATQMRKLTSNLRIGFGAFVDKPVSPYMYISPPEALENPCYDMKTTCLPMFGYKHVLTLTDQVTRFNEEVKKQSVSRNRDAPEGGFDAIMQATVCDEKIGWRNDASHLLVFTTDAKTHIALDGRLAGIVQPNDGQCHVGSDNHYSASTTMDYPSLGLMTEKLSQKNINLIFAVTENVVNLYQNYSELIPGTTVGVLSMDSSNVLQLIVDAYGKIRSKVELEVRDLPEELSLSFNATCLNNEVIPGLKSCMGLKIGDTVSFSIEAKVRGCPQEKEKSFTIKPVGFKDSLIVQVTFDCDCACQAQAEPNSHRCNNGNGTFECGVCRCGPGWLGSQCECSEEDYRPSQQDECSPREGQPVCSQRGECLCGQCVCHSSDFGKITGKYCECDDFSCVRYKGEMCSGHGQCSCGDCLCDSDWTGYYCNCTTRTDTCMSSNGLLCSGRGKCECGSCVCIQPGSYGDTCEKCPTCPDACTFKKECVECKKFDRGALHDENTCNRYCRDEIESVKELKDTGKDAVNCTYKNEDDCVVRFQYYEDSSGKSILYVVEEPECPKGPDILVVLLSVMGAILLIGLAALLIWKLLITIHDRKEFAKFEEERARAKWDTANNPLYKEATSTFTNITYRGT
The assay can be described thus: Fibrinogen binding to immobilized GP IIb-IIIa (αIIbβ3). As to the method:
as §1

For another assay, the target named is T3, αvβ3 (Homo sapiens, UniProt P05106+P06756).
T3 construct: expressed in transfected cells; host or cells: K562
T3 sequence (P06756 31-889 limits assumed): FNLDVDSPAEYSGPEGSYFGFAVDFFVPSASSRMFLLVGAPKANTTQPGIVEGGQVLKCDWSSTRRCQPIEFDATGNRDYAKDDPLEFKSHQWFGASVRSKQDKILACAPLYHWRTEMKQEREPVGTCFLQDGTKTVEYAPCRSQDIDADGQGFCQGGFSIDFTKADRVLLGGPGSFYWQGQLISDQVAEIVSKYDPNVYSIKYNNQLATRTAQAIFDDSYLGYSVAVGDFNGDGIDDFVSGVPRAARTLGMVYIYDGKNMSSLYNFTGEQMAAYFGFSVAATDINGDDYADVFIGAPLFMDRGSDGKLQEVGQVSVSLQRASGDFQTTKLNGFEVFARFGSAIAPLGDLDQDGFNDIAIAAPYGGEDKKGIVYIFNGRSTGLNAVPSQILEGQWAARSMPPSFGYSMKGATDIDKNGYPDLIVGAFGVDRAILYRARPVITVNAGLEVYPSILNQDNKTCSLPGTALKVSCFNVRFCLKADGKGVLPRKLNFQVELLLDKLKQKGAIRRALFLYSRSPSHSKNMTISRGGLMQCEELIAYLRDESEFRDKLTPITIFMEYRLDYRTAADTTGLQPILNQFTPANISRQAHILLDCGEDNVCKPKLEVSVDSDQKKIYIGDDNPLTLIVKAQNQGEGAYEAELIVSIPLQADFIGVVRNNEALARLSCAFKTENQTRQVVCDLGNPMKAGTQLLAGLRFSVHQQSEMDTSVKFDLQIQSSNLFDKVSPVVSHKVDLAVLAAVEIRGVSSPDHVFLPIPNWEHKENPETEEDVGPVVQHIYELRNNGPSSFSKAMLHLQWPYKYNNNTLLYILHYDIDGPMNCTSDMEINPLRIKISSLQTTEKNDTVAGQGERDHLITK
T3 sequence (P06756 891-1048 partner limits assumed): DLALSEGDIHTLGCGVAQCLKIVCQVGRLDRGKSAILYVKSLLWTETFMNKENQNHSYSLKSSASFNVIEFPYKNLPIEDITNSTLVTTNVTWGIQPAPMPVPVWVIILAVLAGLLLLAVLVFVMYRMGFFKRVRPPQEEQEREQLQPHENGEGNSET
T3 sequence (P05106 27-788): as the sequence (P05106 27-788) above
As to the kind of experiment: Cell adhesion assay, K562-tr on osteopontin. In kind it is cell-based. As to the method: (§2) The wells of 96-well plates (Immunolon) were coated, by incubation overnight at 4° C., with 5 ug/mL vitronectin, 2 ug/mL osteopontin, or fibronectin or 10 mg/mL BSA in PBS. The protein solution was flicked out and the wells were blocked with 10 mg/mL BSA (0.1 mL) for 1-2 hours at 37° C. […] Cells were lifted with trypsin-EDTA and washed two times with Hank's balanced salt solution minus cations (Sigma) supplemented with 1 mM MgCl2 Cells (75,000 cells/well) were added to coated plates in triplicate and allowed to attach at 37° C. for 1 hour in the presence or absence of specific antibodies (5 ug/mL) or 10-fold dilutions of compounds of interest starting at 10 uM. Nonadherent cells were removed by gentle washing twice with PBS. The adherent cells were solubilized with 1% triton x-100 and detected using a fluorescence plate reader (DYNEX Technologies). The number of attached cells was calculated based upon standard curves for each cell line used in the experiment.

For the next assay, the target named is T4, αvβ5 (Homo sapiens, UniProt P06756+P18084).
T4 construct: Cells HT29, K562, or K562 transfected with αvβ3; endogenous in cells; host or cells: HT29
The assay can be described thus: Cell adhesion assay, HT29 on vitronectin. The assay is classed as cell-based. As to the method: as §2

For the next assay, the target named is T5, α5β1 (Homo sapiens, UniProt P05556+P08648).
T5 construct: Cells HT29, K562, or K562 transfected with αvβ3; endogenous in cells; host or cells: K562
T5 sequence (P08648 42-894 limits assumed): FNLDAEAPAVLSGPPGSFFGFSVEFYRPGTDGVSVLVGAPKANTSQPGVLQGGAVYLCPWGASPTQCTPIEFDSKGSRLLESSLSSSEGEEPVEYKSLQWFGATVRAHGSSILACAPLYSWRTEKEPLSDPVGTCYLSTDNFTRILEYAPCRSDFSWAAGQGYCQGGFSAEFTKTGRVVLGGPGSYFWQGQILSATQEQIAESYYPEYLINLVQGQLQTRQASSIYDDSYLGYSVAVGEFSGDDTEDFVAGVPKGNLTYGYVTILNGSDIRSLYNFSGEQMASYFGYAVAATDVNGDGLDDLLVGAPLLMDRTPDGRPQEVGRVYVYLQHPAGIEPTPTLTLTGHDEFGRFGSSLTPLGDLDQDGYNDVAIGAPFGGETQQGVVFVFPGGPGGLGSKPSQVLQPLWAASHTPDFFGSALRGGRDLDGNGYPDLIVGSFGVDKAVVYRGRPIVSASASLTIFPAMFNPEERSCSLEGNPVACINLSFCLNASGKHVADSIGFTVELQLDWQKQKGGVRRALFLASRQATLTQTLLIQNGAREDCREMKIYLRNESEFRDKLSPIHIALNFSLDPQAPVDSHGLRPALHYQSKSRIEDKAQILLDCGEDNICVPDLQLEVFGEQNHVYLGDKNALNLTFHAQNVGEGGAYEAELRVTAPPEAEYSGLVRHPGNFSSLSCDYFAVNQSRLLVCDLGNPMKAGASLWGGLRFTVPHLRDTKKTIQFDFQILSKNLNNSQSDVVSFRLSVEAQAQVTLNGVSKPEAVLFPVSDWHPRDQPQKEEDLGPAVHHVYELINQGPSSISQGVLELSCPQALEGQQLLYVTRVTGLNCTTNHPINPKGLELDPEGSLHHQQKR
T5 sequence (P08648 895-1049 partner limits assumed): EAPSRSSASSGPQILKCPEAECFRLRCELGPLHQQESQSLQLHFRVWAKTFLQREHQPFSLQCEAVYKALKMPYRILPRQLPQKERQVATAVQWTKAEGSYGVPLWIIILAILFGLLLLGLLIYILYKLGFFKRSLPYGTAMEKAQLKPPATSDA
T5 sequence (P05556 21-798): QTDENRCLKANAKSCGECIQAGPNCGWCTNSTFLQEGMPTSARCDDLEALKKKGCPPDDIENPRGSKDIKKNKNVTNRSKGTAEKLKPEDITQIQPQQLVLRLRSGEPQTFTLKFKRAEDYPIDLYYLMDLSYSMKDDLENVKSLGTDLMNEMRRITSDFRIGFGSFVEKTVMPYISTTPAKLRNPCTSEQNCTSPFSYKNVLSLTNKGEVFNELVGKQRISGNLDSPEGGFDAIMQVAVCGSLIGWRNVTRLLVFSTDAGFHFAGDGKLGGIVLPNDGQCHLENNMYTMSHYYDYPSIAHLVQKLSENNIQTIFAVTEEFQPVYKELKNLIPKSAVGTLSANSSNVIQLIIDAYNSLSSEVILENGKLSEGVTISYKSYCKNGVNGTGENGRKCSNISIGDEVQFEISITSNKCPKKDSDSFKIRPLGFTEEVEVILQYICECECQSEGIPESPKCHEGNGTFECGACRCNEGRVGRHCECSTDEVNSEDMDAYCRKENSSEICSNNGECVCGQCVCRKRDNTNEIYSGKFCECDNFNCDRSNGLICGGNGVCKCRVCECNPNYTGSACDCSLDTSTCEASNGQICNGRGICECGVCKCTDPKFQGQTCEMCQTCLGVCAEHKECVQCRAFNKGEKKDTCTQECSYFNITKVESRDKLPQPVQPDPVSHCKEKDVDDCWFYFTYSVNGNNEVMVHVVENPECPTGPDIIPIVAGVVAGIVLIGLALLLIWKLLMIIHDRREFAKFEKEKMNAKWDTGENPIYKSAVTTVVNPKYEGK
The assay can be described thus: Cell adhesion assay, K562 on fibronectin. In kind it is cell-based. Particulars: K562 cells, adhesion to fibronectin, 1 hour. The procedure:
The wells of 96-well plates (Immunolon) were coated, by incubation overnight at 4° C., with 5 ug/mL vitronectin, 2 ug/mL osteopontin, or fibronectin or 10 mg/mL BSA in PBS. The protein solution was flicked out and the wells were blocked with 10 mg/mL BSA (0.1 mL) for 1-2 hours at 37° C. Cells HT29, K562, or K562 transfected with αvβ3 (Blystone et al., 1994) were loaded with a fluorescent marker, 5-chloromethylfluorescein diacetate (Molecular Probes, Eugene, Oreg.) for 1 hour at 37° C., then incubated in fresh medium without the fluorescent marker for 1 hour. Cells were lifted with trypsin-EDTA and washed two times with Hank's balanced salt solution minus cations (Sigma) supplemented with 1 mM MgCl2 Cells (75,000 cells/well) were added to coated plates in triplicate and allowed to attach at 37° C. for 1 hour in the presence or absence of specific antibodies (5 ug/mL) or 10-fold dilutions of compounds of interest starting at 10 uM. Nonadherent cells were removed by gentle washing twice with PBS. The adherent cells were solubilized with 1% triton x-100 and detected using a fluorescence plate reader (DYNEX Technologies). The number of attached cells was calculated based upon standard curves for each cell line used in the experiment. Non-specific cell attachment (attachment to wells coated with BSA) was always less than 5%.

A further assay deals with HMVEC. As to the kind of experiment: Cell proliferation and cytotoxicity MTT assay, HMVEC. The assay is classed as cell-based. The note with it: 72 hours culture. As to the method:
(§3) The wells of microtiter plates were seeded with 2000 cells/well T24, 2500 cells/well HT29 or 5000 cells/well HMVEC (Cell Systems) in 100 uL, followed by an overnight culture for cell adhesion. The next day, the media is supplemented with 100 uL of 10-fold dilution of compound of interest starting at 10 uM. Following culture for 72 hours, 3-(4,5-dimethyl-2-thiazolyl)-2,5-diphenyltetrazolium bromide (MTT; Sigma) at 2 mg/mL was added to each well (50 uL/well) and further incubated for 4 hours at 37° C. The medium was flicked out and 200 uL of a 1:1 solution of ethanol:acetone followed by 25 uL of glycine buffer (0.1 M glycine, 0.1M NaCl, pH 10.5) is added and the color measured by the absorbance at 570 nm.
On the technique in general: Tetrazolium dyes change colour on reduction, which living cells bring about.

The next assay relates to HT29. The assay can be described thus: Cell proliferation and cytotoxicity MTT assay, HT29. In kind it is cell-based. As to the method: as §3
For assay [1], the system named is Chick chorioallantoic membrane (CAM) capillary formation driven by VPF/VEGF165. The assay can be described thus: Chick chorioallantoic membrane (CAM) mesh assay. In kind it is in vivo, chicken. The note with it: significant if >25%. As to the method: Fertilized white leghorn chicken eggs (SPAFAS Inc., Norwich, Conn.) were received at day 0 and incubated for 3 days at 37 C with constant humidity. On day 3, eggs were rinsed with 70% ethanol and opened into 100 mm^2 tissue culture coated Petri dishes under aseptic conditions. The embryos were then returned to a humidified 38 C incubator for 7-9 additional days.
Vitrogen (Collagen Biomaterials, Palo Alto, Calif.) at a final concentration of 0.73 mg/mL and Matrigel (Becton Dickinson, Bedford, Mass.) at a final concentration of 10 mg/mL was directly pipetted onto Nylon meshes with 250 μm^2 openings which were cut into 4 mm×4 mm squares and autoclaved. Polymerization of meshes were under aseptic conditions, on bacteriological Petri dishes. The polymerization conditions for each substrate were identical; after mixing with or without 250 μg of VPF/VEGF165 (Peprotech, Rocky Hill, N.J.) and/or compounds of interest, 40 μL were pipetted onto each mesh in a bacteriological Petri dish. The Petri dish was placed in a humidified 37 C incubator with 5% CO2 for 30 minutes to allow polymerization followed by an incubation at 4° C. for 2 hours.
In a tissue culture enclosure, meshes were placed onto the periphery of the CAM of a day 12-14 embryo, excluding areas containing major vessels. The embryos were then returned to the humidified 38° C. incubator with 3% CO2 for 24 to 48 additional hours.
Embryos were removed from the incubator and meshes were viewed under a dissecting microscope for gross evaluation. Injection of 400 μL FITC dextran, MW 2,000,000 (Sigma, St. Louis, Mo.) through glass microcapillary tubes by infusion into the umbilical vein was performed at a rate of 200 μl per minute. The FITC dextran was allowed to circulate for 5 minutes and 3.7% formaldehyde in PBS was applied directly on each mesh. The embryos were then incubated at 40° C. for 5 minutes and the meshes were dissected off the CAM and fixed in 3.7% formaldehyde for 10 minutes to overnight.
After fixation, meshes were mounted on slides with 90% glycerol in PBS and visualized on an inverted fluorescence microscope. A Nikon Diaphot with a Sony DXC-151A camera attached to the side port was used for capture of images and analysis was with the NIH Image 1.61 software program. For each mesh, 5 random staggered images (approximately 600 μm each) were captured. The areas of high intensity were highlighted and measured. Results are expressed as ability to suppress capillary formation after subtraction from negative control. Values were calculated as a inhibition, considering 100% the capillary density achieved by VPF in the presence of vitrogen alone minus the bakground levels in the absence of VPF. Negative values indicated angiogenic stimulation above the VPF positive control.

Where [2] appears, read: Homo sapiens, HT-29, 72 hours culture.

Where two headings read alike, the source gives them in different places.

By IC50 is commonly meant the concentration that inhibits the measured activity by half.

T1 sequence (P06756 31-889 limits assumed): as the sequence (P06756 31-889 limits assumed) above
T1 sequence (P06756 891-1048 partner limits assumed): as the sequence (P06756 891-1048 partner limits assumed) above
T1 sequence (P05106 27-788): as the sequence (P05106 27-788) above

With `Cl.N=C(N)NCCNC(=O)c1ccc(C(=O)NC[C@H](NS(=O)(=O)c2ccccc2)C(=O)O)o1` [Compound XXI, hydrochloride], the IC50 was 0.045 µM on placental αvβ3; 0.931 µM at GP IIb-IIIa (αIIbβ3); 2.3 µM against αvβ3; 5.4 µM at αvβ5; more than 10 µM against α5β1; 8.9 µM in the assay with HMVEC (HMVEC). Moreover, in the assay with HT29 (setting [2]), the IC50 was more than 10 µM.
As to `N=C(N)NCCNC(=O)c1ccc(C(=O)NCC(Nc2ncccn2)C(=O)O)s1.O=C(O)C(F)(F)F.O=C(O)C(F)(F)F` (centres unmarked) [Compound XXX, 3-{[5-(2-guanidino-ethylcarbamoyl)-thiophene-2-carbonyl]-amino}-2-(pyrimidin-2-ylamino)-propionic acid bis trifluoroacetic acid salt], the IC50 at placental αvβ3 was 0.15 µM; at GP IIb-IIIa (αIIbβ3) it was 0.69 µM; on αvβ3, 3.4 µM; against αvβ5, more than 10 µM; against α5β1 it was more than 10 µM; with HMVEC (HMVEC), more than 10 µM. Also, in the assay with HT29 (setting [2]), the IC50 was more than 10 µM. Besides, in assay [1], the “% of inhibition at 33 μg/mesh in the presence of VEGF” value is reported as 31%.
Turning to “(2S)2-Benzenesulfonylamino-3-[5-(2-guanidinyl-ethylcarbamoyl)-thiophen-2-carbonyl]-amino propionic acid hydrochloride salt [Compound XI]”, the concentration for half-maximal inhibition (IC50) at placental αvβ3 (biotinylated-fibrinogen (10 nM) binding to immobilized αvβ3, read-out: IC50 αvβ3) came out at 0.00058 µM; at GP IIb-IIIa (αIIbβ3) (biotinylated-fibrinogen (10 nM) binding to immobilized αIIbβ3, read-out: IC50 αIIbβ3), 0.00031 µM; at αvβ3 (K562 transfected with αvβ3, adhesion to osteopontin, 1 hour, read-out: IC50 K562-tr Osteopontin (αvβ3)), 0.087 µM; on αvβ5 (HT29 cells, adhesion to vitronectin, 1 hour, read-out: IC50 HT29 Vitronectin (αvβ5)) it was 0.21 µM; against α5β1, 5.3 µM; with HMVEC it was 0.87 µM. In addition, in the assay on HT29 (72 hours culture), the IC50 came out at 9.9 µM. Further, the “% of inhibition at 33 μg/mesh in the presence of VEGF” value in assay [1] is listed as 38%.

For the origin of these results see patent publication US6960594B2, “Thiophene and furan 2,5-dicarboxamides useful in the treatment of cancer” (Shire BioChem Inc., priority 1998, dated 2005).
